Reference: patent US9018248B2, “Fatty acid derivatives of catechins and methods of their use” (Genesis Group Inc., priority 2010, dated 2015)

Key:
[1] = TBARS formation in cooked pork model system; details: 80 μmol/kg meat, stored at 4° C.
Description: Fresh ground pork (40 g) was mixed with deionized water (10 g) in a Mason jar. Samples and reference antioxidant compound (BHA) dissolved in ethanol were added to meat at a level of 80 μmol/kg. A control without any antioxidant was also prepared. The content was thoroughly mixed and cooked at 80° C. in a thermostated water bath for 40 min with intermittent stirring. The cooked meat was cooled to room temperature and homogenized with a Polytron PT 3000 (Brinkmann Instruments, Rexdale, ON) homogenizer. The homogenate was then transferred into plastic bags and stored at 4° C. for 14 days. […].
TBARS values were determined as described by Shahidi and Hong (Shahidi, F. and Hong, C. Evaluation of malonaldehyde as a marker of oxidative rancidity in meat products. J. Food Biochem. 15, 97-105, 1991).
A series of TMP (1,1,3,3-tetramethoxypropane) standard solutions at difference concentrations was mixed with thiobarbituric acid (TBA) in screw-capped tubes and heated in a boiling water bath for 45 min. After cooling on ice, the absorbance was recorded at 532 nm and a standard curve was constructed (absorbance versus concentration). For TBARS in the cooked meat model system, 2 g of meat were mixed with 5 ml of trichloroacetic acid (TCA, 10% w/v) in a centrifuge tube, followed by addition of 5 ml of TBA reagent. The mixture was centrifuged at 3000×g for 10 min and the supernatant was filtered. The filtrate was heated in a boiling water bath for 45 min and absorbance was measured at 532 nm after cooling to room temperature. TBARS values in meat samples were obtained using the standard curve as μmol malonaldehyde equivalents/kg of meat. Antioxidant activity was calculated as percentage inhibition of TBARS formation by test compounds.

[2] = test system: colon ACF and colon tumors in AOM treated mice; experiment: AOM-treated mice, colon aberrant crypt foci and tumors; type: in vivo, ICR mice
Description: (§1) Male ICR mice at 5 weeks of age were purchased from the BioLASCO Experimental Animal Center (Taiwan Co., Ltd). After 1 week of acclimation, animals were randomly distributed into control and experimental groups. All animals were housed in a controlled atmosphere (25±1° C. at 50% relative humidity) and with a 12-hour light/12-hour dark cycle. Animals had free access to food and water at all times. Food cups were replenished with fresh diet every day. The experimental protocol is illustrated in FIG. 6. Mice were divided into 6 groups. One group (negative control) was fed standard diet; one group (positive control) was fed standard diet but injected with azozymethane (AOM) twice a week for 2 weeks; the remaining 4 groups had AOM injection and dietary supplementation of different levels of EGCG esters (1a and EGCG-DHA ester mixture containing predominantly 1c and its homologues). 9(b): Identification of ACF The formalin-fixed colonic tissues were cut into proximal (1-2 cm from the cecum), middle (3-4 cm) and distal (1-2 cm from anus) segments and stained in 0.2% methylene blue solution for 10 min. Methylene blue-stained ACF in each focus were counted under a microscope (×40). The ACF location (distance from anus) and size (number of aberrant crypts) were recorded. […] The densities of the bands were quantitated with a computer densitometer (AlphaImager™ 2200 System). […]

HCV NS3/4A protease = HCV NS3/4A protease (Hepatitis C virus genotype 1a, UniProt P27958); experiment: Inhibition against HCV protease; type: biochemical
HCV NS3/4A protease, sequence (P27958 1027-1657): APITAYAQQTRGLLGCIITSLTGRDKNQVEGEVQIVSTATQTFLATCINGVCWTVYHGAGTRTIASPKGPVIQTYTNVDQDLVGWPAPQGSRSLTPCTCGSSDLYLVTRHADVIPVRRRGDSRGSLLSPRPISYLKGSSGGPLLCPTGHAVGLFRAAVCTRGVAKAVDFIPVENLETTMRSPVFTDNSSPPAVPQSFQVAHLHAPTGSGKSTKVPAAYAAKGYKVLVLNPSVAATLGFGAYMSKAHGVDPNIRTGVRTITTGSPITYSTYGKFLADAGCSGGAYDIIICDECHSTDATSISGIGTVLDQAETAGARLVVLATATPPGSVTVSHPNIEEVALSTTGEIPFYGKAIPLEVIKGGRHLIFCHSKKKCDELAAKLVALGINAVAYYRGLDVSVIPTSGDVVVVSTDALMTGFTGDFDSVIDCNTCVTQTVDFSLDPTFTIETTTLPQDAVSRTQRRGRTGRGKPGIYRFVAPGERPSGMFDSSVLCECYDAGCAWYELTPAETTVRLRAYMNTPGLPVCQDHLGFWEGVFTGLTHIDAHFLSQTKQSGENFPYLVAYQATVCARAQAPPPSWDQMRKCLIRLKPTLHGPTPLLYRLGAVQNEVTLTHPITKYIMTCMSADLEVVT
HCV NS3/4A protease, sequence (P27958 1658-1711): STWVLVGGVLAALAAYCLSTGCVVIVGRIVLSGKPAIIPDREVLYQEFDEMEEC
Description: An aliquot (2 μl) of test compounds dissolved in DMSO was added to each well of a 384-well black Assay plate, followed by addition of 8 μl of HCV NS3/4A protease solution (0.5 μg/ml). The reaction was initiated by adding 10 μl of freshly diluted substrate (100× dilution of a DMSO stocking solution). The mixture was incubated at room temperature for 30 min, and the fluorescence intensity was measured at 485 nm for excitation and 535 nm for emission by a TECAN GENios plate reader. […] All fluorescence values were corrected with a substrate blank. Samples were assayed at different concentrations to plot a concentration VS. inhibition percentage curve, and IC50 values were obtained from the curve for each sample. A known HCV protease inhibitor, embelin, was used as a reference. Discussion

COX-2 = COX-2 expression in colon of AOM-treated mice (western blot); type: in vivo, ICR mice; details: western blot of colon mucosa
Description: as §1

iNOS = iNOS expression in colon of AOM-treated mice (western blot); type: in vivo, ICR mice; details: western blot of colon mucosa
Description: as §1

Structure (SMILES) | Inhibition of TBARS formation in cooked pork [1] | Colon tumors ([2]; AOM treated mice, FIG. 7) | Tumorogenesis in terms of number and size of ACF ([2]; AOM-injected male ICR mice, dietary supplementation) | IC50 (HCV NS3/4A protease; HCV NS3/4A protease 0.5 μg/ml, 30 min, room temperature) | HCV protease inhibitory activity relative to embelin (HCV NS3/4A protease; fold stronger than embelin) | COX-2 expression in mice colon (COX-2) | iNOS expression in mice colon (iNOS)
COc1ccc(O)c(C(C)(C)C)c1 [BHA, reference compound] | 83.3 ± 2.34^ab % | – | – | – | – | – | –
CCCC(=O)Oc1cc(OC(=O)CCC)c2c(c1)OC(c1cc(OC(=O)CCC)c(OC(=O)CCC)c(OC(=O)CCC)c1)C(OC(=O)c1cc(OC(=O)CCC)c(OC(=O)CCC)c(OC(=O)CCC)c1)C2 (stereo not shown) [Compound 1g, EGCG-octabutyrate] | – | inhibited to a lesser level | significantly suppressed tumorogenesis | 980 nM | 10 fold | dose-dependent inhibitory effect | dose-dependent inhibitory effect
